What is called IC50 is the midpoint of a concentration-inhibition curve.

In this assay the target is T1, NLRP3 (Homo sapiens, UniProt Q96P20).
T1 construct: host or cells: THP-1 cells differentiated with PMA
T1 sequence (Q96P20 whole entry): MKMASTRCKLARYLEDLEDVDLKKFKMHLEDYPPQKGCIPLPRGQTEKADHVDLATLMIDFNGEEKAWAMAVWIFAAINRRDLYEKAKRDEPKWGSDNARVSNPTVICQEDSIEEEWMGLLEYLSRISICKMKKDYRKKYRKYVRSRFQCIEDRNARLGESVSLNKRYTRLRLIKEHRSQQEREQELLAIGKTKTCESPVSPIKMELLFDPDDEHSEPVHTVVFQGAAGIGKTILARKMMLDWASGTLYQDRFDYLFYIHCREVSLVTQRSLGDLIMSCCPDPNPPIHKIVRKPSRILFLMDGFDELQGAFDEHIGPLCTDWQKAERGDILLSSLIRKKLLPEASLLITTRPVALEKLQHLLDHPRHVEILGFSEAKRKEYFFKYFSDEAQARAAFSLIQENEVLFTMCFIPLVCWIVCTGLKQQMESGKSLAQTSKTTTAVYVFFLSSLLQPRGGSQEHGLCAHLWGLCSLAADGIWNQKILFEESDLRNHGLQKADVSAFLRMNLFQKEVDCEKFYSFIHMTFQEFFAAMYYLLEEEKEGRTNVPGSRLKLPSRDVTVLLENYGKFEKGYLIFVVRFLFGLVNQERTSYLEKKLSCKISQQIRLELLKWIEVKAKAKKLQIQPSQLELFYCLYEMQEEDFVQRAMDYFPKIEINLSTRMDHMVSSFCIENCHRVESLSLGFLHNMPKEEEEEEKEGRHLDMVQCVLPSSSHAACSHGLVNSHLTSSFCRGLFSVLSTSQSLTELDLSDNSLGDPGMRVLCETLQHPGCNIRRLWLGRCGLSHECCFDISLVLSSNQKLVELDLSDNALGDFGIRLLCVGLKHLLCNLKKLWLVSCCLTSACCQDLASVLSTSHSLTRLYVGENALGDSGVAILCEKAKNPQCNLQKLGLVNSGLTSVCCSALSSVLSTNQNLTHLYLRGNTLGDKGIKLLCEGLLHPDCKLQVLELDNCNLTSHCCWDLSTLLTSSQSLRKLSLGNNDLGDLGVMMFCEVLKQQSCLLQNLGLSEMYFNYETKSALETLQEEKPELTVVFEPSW
The assay can be described thus: IL-1β Secretion Assay (NLRP3-dependent IL1β secretion in THP1 cells). Type of assay: cell-based. Conditions: PMA-differentiated THP-1 cells; compounds incubated 20 h; 2.5 μM Nigericin 3 h; HTRF IL-1β readout; read-out: IC50 IL-1β Inhibition. The gist of the method:
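THP-1 cells differentiated with 100 ng/mL PMA for 24 h, then given compound (7-point 3-fold series, 1:200 from DMSO) for 20 h in RPMI+5% FBS. NLRP3 activated with 2.5 μM nigericin for 3 h; secreted IL-1β measured by HTRF; IC50 from logistic fit of % inhibition.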
Background: TR-FRET usually uses a lanthanide donor and a delayed reading to cut background.
Regarding `COc1ccc(-c2nnc(N[C@H]3C[C@@H](CO)C3)n3cncc23)c(OC(F)(F)F)c1` [Compound 291, [(1s,3s)-3-({1-[4-methoxy-2-(trifluoromethoxy)phenyl]imidazo[1,5-d][1,2,4]triazin-4-yl}amino)cyclobutyl]methanol], the half-maximal inhibitory concentration (IC50) lay in the range of 1 to 10 nM.
Turning to `CC1(CO)CC(Nc2nnc(-c3ccc(C(F)(F)F)cc3OC(F)(F)F)c3cncn23)C1` (centres unmarked) [Compound 335, [1-methyl-3-({1-[2-(trifluoromethoxy)-4-(trifluoromethyl)phenyl]imidazo[1,5-d][1,2,4]triazin-4-yl}amino)cyclobutyl]methanol], the IC50 was 10 to 100 nM.
The value for `COc1ccc(-c2nnc(N[C@@H]3CCC[C@H](O)C3)n3cncc23)c(CC(F)(F)F)c1` [Compound 302, (1S,3R)-3-({1-[4-methoxy-2-(2,2,2-trifluoroethyl)phenyl]imidazo[1,5-d][1,2,4]triazin-4-yl}amino)cyclohexan-1-ol] was 1 to 10 nM; that for `COc1ccc(-c2nnc(NC3CCNC3=O)n3cncc23)c(C2CC2)c1` (centres unmarked) [Compound 320, 3-{[1-(2-cyclopropyl-4-methoxyphenyl)imidazo[1,5-d][1,2,4]triazin-4-yl]amino}pyrrolidin-2-one] was 10 to 100 nM.
Regarding `COc1ccc(-c2nnc(N[C@@H]3CCCN(CCO)C3)n3cccc23)c(OC(F)(F)F)c1` [Compound 61, 2-[(3R)-3-({1-[4-methoxy-2-(trifluoromethoxy)phenyl]pyrrolo[1,2-d][1,2,4]triazin-4-yl}amino)piperidin-1-yl]ethan-1-ol], the IC50 is less than 1 nM.
The figure for `COc1ccc(-c2nnc(NC(C)c3cccc(O)c3)n3cncc23)c(CC(F)(F)F)c1` (centres unmarked) [Compound 303, 3-[1-({1-[4-methoxy-2-(2,2,2-trifluoroethyl)phenyl]imidazo[1,5-d][1,2,4]triazin-4-yl}amino)ethyl]phenol] is less than 1 nM; for `Cc1ccc(-c2nnc(NC(C)c3cccc(O)c3)n3cccc23)c(OC(F)F)c1` (centres unmarked) [Compound 100, 3-[1-({1-[2-(difluoromethoxy)-4-methylphenyl]pyrrolo[1,2-d][1,2,4]triazin-4-yl}amino)ethyl]phenol] it is 1 to 10 nM.
The figure for `Cc1ccc(-c2nnc(N[C@H]3C[C@@](C)(O)C3)n3cncc23)c(OC(F)(F)F)c1` [Compound 332, (1s,3s)-1-methyl-3-({1-[4-methyl-2-(trifluoromethoxy)phenyl]imidazo[1,5-d][1,2,4]triazin-4-yl}amino)cyclobutan-1-ol] is 10 to 100 nM; for `O[C@@H]1CCCC[C@H]1Nc1nnc(-c2ccc(C(F)(F)F)cc2OC(F)(F)F)c2ccnn12` [Compound 398, (1R,2R)-2-({4-[2-(trifluoromethoxy)-4-(trifluoromethyl)phenyl]pyrazolo[1,5-d][1,2,4]triazin-7-yl}amino)cyclohexan-1-ol] it is 1 to 10 nM; for `COc1cccc(C(C)Nc2nnc(-c3ccc(OC)cc3OC(F)(F)F)c3cncn23)c1` (centres unmarked) [Compound 230, N-[1-(3-methoxyphenyl)ethyl]-1-[4-methoxy-2-(trifluoromethoxy)phenyl]imidazo[1,5-d][1,2,4]triazin-4-amine] it is not below 300 nM.
The figure for `Cc1cc2c(-c3ccc(C(F)(F)F)cc3CC(F)(F)F)nnc(N[C@H]3C[C@@](C)(O)C3)n2n1` [Compound 388, (1s,3s)-1-methyl-3-({2-methyl-4-[2-(2,2,2-trifluoroethyl)-4-(trifluoromethyl)phenyl]pyrazolo[1,5-d][1,2,4]triazin-7-yl}amino)cyclobutan-1-ol] is 1 to 10 nM.
With `COc1ccc(-c2nnc(NC[C@@H]3CCCO3)n3cccc23)c(OC(F)(F)F)c1` [Compound 76, 1-[4-methoxy-2-(trifluoromethoxy)phenyl]-N-{[(2S)-oxolan-2-yl]methyl}pyrrolo[1,2-d][1,2,4]triazin-4-amine], the IC50 is 10 to 100 nM.
Take `COc1ccc(-c2nnc(N[C@@H]3C[C@@H](F)CN(C)C3)n3cccc23)c(OC(F)(F)F)c1` [Compound 60, N-[(3R,5R)-5-fluoro-1-methylpiperidin-3-yl]-1-[4-methoxy-2-(trifluoromethoxy)phenyl]pyrrolo[1,2-d][1,2,4]triazin-4-amine]: the half-inhibitory concentration (IC50) was in the range of 1 to 10 nM.
As for `COc1ccc(-c2nnc(N[C@@H]3CCC[C@H](O)C3)n3cccc23)c(OC(F)(F)F)c1` [Compound 62, (1S,3R)-3-({1-[4-methoxy-2-(trifluoromethoxy)phenyl]pyrrolo[1,2-d][1,2,4]triazin-4-yl}amino)cyclohexan-1-ol], the IC50 lay in the range of 10 to 100 nM.
Consider `CN1CCC[C@@H](Nc2nnc(-c3ccc(C4CC4)cc3OC(F)(F)F)c3cccn23)C1` [Compound 37, 1-[4-cyclopropyl-2-(trifluoromethoxy)phenyl]-N-[(3R)-1-methylpiperidin-3-yl]pyrrolo[1,2-d][1,2,4]triazin-4-amine], for which the IC50 is less than 1 nM.
The value for `CN1C[C@H](F)C[C@@H](Nc2nnc(-c3ccc(C(F)(F)F)cc3C(F)(F)F)c3cncn23)C1` [Compound 252, 1-[2,4-bis(trifluoromethyl)phenyl]-N-[(3R,5R)-5-fluoro-1-methylpiperidin-3-yl]imidazo[1,5-d][1,2,4]triazin-4-amine] was 1 to 10 nM; that for `Cc1cc2c(-c3ccc(C(F)(F)F)cc3C(F)(F)F)nnc(N[C@@H]3CCCC[C@H]3O)n2c1` [Compound 160, (1R,2R)-2-({1-[2,4-bis(trifluoromethyl)phenyl]-7-methylpyrrolo[1,2-d][1,2,4]triazin-4-yl}amino)cyclohexan-1-ol] was 1 to 10 nM; that for `CCN1C[C@H](F)C[C@@H](Nc2nnc(-c3ccc(Br)cc3OC(F)F)c3cncn23)C1` [Compound 196, 1-[4-bromo-2-(difluoromethoxy)phenyl]-N-[(3R,5R)-1-ethyl-5-fluoropiperidin-3-yl]imidazo[1,5-d][1,2,4]triazin-4-amine] was less than 1 nM.
The figure for `O[C@H]1CCC[C@@H](Nc2nnc(-c3ccc(C(F)(F)F)cc3OC(F)(F)F)c3cncn23)C1` [Compound 240, (1S,3R)-3-({1-[2-(trifluoromethoxy)-4-(trifluoromethyl)phenyl]imidazo[1,5-d][1,2,4]triazin-4-yl}amino)cyclohexan-1-ol] is less than 1 nM.
The value for `COc1ccc(-c2nnc(N[C@H]3C[C@@](C)(O)C3)n3nc(C)cc23)c(CC(F)(F)F)c1` [Compound 387, (1s,3s)-3-({4-[4-methoxy-2-(2,2,2-trifluoroethyl)phenyl]-2-methylpyrazolo[1,5-d][1,2,4]triazin-7-yl}amino)-1-methylcyclobutan-1-ol] was 1 to 10 nM.
On to `CN1CCC[C@@H](Nc2nnc(-c3ccc(C4CC4)cc3OC(F)F)c3cncn23)C1` [Compound 203, 1-[4-cyclopropyl-2-(difluoromethoxy)phenyl]-N-[(3R)-1-methylpiperidin-3-yl]imidazo[1,5-d][1,2,4]triazin-4-amine], for which the concentration for half-maximal inhibition (IC50) was less than 1 nM.
The figure for `FC(F)(F)Oc1cc(C(F)(F)F)ccc1-c1nnc(Nc2cc[nH]n2)n2cccc12` [Compound 150, N-(1H-pyrazol-3-yl)-1-[2-(trifluoromethoxy)-4-(trifluoromethyl)phenyl]pyrrolo[1,2-d][1,2,4]triazin-4-amine] is 100 to 300 nM; for `O[C@H]1CCC[C@@H](Nc2nnc(-c3ccc(OC(F)F)cc3OC(F)(F)F)c3cccn23)C1` [Compound 153, (1S,3R)-3-({1-[4-(difluoromethoxy)-2-(trifluoromethoxy)phenyl]pyrrolo[1,2-d][1,2,4]triazin-4-yl}amino)cyclohexan-1-ol] it is 1 to 10 nM; for `OCCN1CCC[C@@H](Nc2nnc(-c3ccc(C4CC4)cc3OC(F)F)c3cncn23)C1` [Compound 185, 2-[(3R)-3-({1-[4-cyclopropyl-2-(difluoromethoxy)phenyl]imidazo[1,5-d][1,2,4]triazin-4-yl}amino)piperidin-1-yl]ethan-1-ol] it is 1 to 10 nM.
The value for `COc1ccc(-c2nnc(N[C@@H]3CCCN(C)C3)n3cccc23)c(C2CC2)c1` [Compound 27, 1-(2-cyclopropyl-4-methoxyphenyl)-N-[(3R)-1-methylpiperidin-3-yl]pyrrolo[1,2-d][1,2,4]triazin-4-amine] was 1 to 10 nM.
On to `C[C@]1(O)C[C@@H](Nc2nnc(-c3ccc(C4CC4)cc3CC(F)(F)F)c3cncn23)C1` [Compound 348, (1s,3s)-3-({1-[4-cyclopropyl-2-(2,2,2-trifluoroethyl)phenyl]imidazo[1,5-d][1,2,4]triazin-4-yl}amino)-1-methylcyclobutan-1-ol], for which the IC50 is less than 1 nM.
The value for `COc1ccc(-c2nnc(NC(C)c3cccc(O)c3)n3cncc23)c(OC(F)(F)F)c1` (single isomer, unassigned) [Compound 247] was less than 1 nM; that for `CN1CCC[C@@H](Nc2nnc(-c3ccc(C(F)(F)F)cc3OC(F)(F)F)c3cncn23)C1` [Compound 197, N-[(3R)-1-methylpiperidin-3-yl]-1-[2-(trifluoromethoxy)-4-(trifluoromethyl)phenyl]imidazo[1,5-d][1,2,4]triazin-4-amine] was less than 1 nM; that for `COc1ccc(-c2nnc(N[C@@H]3CCCC[C@@]3(C)O)n3cncc23)c(OC(F)(F)F)c1` (single isomer, unassigned) [Compound 311] was 1 to 10 nM.
Take `Cc1cc2c(-c3ccc(C4CC4)cc3C(F)F)nnc(N[C@@H]3CCCN(C)C3)n2c1` [Compound 14, 1-[4-cyclopropyl-2-(difluoromethyl)phenyl]-7-methyl-N-[(3R)-1-methylpiperidin-3-yl]pyrrolo[1,2-d][1,2,4]triazin-4-amine]: the concentration for half-maximal inhibition (IC50) lay within 1 to 10 nM.
As for `CC(Nc1nnc(-c2ccc(C(F)(F)F)cc2CC(F)(F)F)c2cncn12)c1cccc(O)c1` (centres unmarked) [Compound 266], the IC50 was less than 1 nM.
The figure for `COc1ccc(-c2nnc(NCc3cc[nH]n3)n3cncc23)c(OC(F)(F)F)c1` [Compound 234, 1-[4-methoxy-2-(trifluoromethoxy)phenyl]-N-[(1H-pyrazol-3-yl)methyl]imidazo[1,5-d][1,2,4]triazin-4-amine] is 10 to 100 nM.

These data come from patent publication US20250179078A1, “INHIBITORS OF NLRP3” (PTC THERAPEUTICS, INC., priority 2022, published 2025).
